Bounds are passed on as bounds.

This passage reports IC50 results from ChEMBL document CHEMBL3822418, “Enriching screening libraries with bioactive fragment space” (Bioorg Med Chem Lett, 2016).

Sequence of Casein kinase II subunit alpha (P68400 whole entry, the tested form may be a part): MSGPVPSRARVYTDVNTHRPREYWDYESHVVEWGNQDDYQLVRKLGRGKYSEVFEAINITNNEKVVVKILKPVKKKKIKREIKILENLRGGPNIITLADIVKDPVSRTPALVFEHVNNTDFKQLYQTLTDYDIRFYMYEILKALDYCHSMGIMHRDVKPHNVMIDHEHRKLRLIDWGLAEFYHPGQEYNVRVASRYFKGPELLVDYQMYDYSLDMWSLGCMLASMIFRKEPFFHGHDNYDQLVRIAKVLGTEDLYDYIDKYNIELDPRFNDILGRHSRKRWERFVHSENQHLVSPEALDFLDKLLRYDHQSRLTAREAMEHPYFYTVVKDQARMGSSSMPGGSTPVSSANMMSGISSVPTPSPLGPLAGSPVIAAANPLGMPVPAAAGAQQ

This experiment addresses Casein kinase II subunit alpha (Homo sapiens, UniProt P68400). As to the kind of experiment: Inhibition of human CK2alpha (2 to 391 residues) using [33P]-ATP by scintillation counting based radioactive filter binding assay.
On to `O=C(Nc1ccccc1)c1n[nH]c2ccc([N+](=O)[O-])cc12`, for which the IC50 (commonly the concentration that gives 50% inhibition) is over 200 µM.

In the case of `O=C(Nc1n[nH]c2cccc(F)c12)c1ccc2c(c1)CCO2`, the IC50 is over 200 µM. The result for `CCc1nnc(-c2cccc(NC(=O)c3n[nH]c4ccccc34)c2)o1` reads over 200 µM; that for `Cc1cc2cc(NC(=O)c3n[nH]c4ccccc34)ccc2[nH]1`, over 200 µM.
